Values of other authors, collected in patent publication US10114931B2, “Pharmaceutical platform technology for the development of natural products” (Sinoveda Canada Inc., priority 2007, dated 2018).
Where two headings read alike, the source gives them in different places.

Legend:
[1] = in vivo
[2] = Yan et al., 2008
[3] = system: osteoblast formation; details: compared with genistein
[4] = in vivo; remark: listed apart in the source
[5] = system: bone loss in early postmenopausal women; details: 54 mg/day, given orally for a year

C[C@@H]1O[C@@H](OC[C@H]2O[C@@H](Oc3c(-c4ccc(O)c(O)c4)oc4cc(O)cc(O)c4c3=O)[C@H](O)[C@@H](O)[C@@H]2O)[C@H](O)[C@H](O)[C@H]1O [Rutin]
Detection in the blood stream [1]: not detected

CCC/C=C1\OC(=O)C2=C1CCC=C2 [z-ligustilide]
Bioavailability [2]: less than 3%

O=c1c(-c2ccc(O)cc2)coc2cc(O)ccc12 [daidzein]
Potency in osteoblast formation in vitro [3]: more potent
Bioavailability [4]: less than 5%

O=c1c(-c2ccc(O)cc2)coc2cc(O)cc(O)c12 [genistein]
Efficacy compared with hormone replacement therapy [5]: as effective as hormone replacement therapy
